Article PMC9065260 (Frontiers in Pharmacology, 2022)

Columns and labels:
HCC827 cells = experiment: MTT assay for cell proliferation and cytotoxicity; format: cell-based; conditions: Homo sapiens, 48 h, mean ± SD
Procedure: (§1) The compounds were dissolved in DMSO to make a 50 mM stock solution and were diluted to the concentration of working solutions with the complete growth medium before administration.
(§2) Cells were seeded in 96-well plates with densities of 2,200–2,500 cells/well in 100 μL. One day after seeding, the concentration of the test compounds between 0 and 50 μM, 0.1% DMSO was added to cells as control. […] After 48 h, MTT was added and incubated in the plate for 1–4 h in the incubator.

H1650 cells = experiment: MTT assay for cell proliferation and cytotoxicity; format: cell-based; conditions: Homo sapiens, NCI-H1650; MTT, 48 h, mean ± SD; read-out: IC50 H1650
Procedure: as §1, §2

KYSE450 cells = experiment: MTT assay for cell proliferation and cytotoxicity; format: cell-based; conditions: Homo sapiens, KYSE-450; MTT, 48 h, mean ± SD; read-out: IC50 KYSE450
Procedure: as §1, §2

[1] = tested on: human esophageal epithelial cell SHEE; experiment: MTT assay, toxicity against normal cells; format: cell-based; conditions: MTT, normal human esophageal epithelial cells, mean ± SD, read-out: IC50 SHEE
Procedure: Cells were seeded in 96-well plates with densities of 2,200–2,500 cells/well in 100 μL. One day after seeding, the concentration of the test compounds between 0 and 50 μM, 0.1% DMSO was added to cells as control. Approximately 2200-2500 transfected cells in 100 μL were incubated in quintuplicate in 96-well plates. After 48 h, MTT was added and incubated in the plate for 1–4 h in the incubator.

KYSE70 cells = experiment: MTT assay for cell proliferation and cytotoxicity; format: cell-based; conditions: Homo sapiens, KYSE-70; MTT, 48 h, mean ± SD; read-out: IC50 KYSE70
Procedure: as §1, §2

KYSE410 cells = experiment: MTT assay for cell proliferation and cytotoxicity; format: cell-based; conditions: Homo sapiens, KYSE-410; MTT, 48 h, mean ± SD; read-out: IC50 KYSE410
Procedure: as §1, §2

SMILES	melting point [°C]	IC50 (HCC827 cells) [µM]	IC50 (H1650 cells) [µM]	IC50 (KYSE450 cells) [µM]	IC50 [1] [µM]	IC50 (KYSE70 cells) [µM]	IC50 (KYSE410 cells) [µM]
COCCOc1cc2ncnc(Nc3cccc(-c4cn(-c5ccccc5F)nn4)c3)c2cc1OCCOC [Compound 3f, [6,7-Bis-(2-Methoxy-Ethoxy)-Quinazolin-4-yl]-{3-[1-(2-Fluoro-Phenyl)-1H-(1,2,3)Triazol-4-yl]-Phenyl}-Amine]	83 to 86	17.8 ± 1.61	> 50	34.2 ± 3.01	12.1 ± 1.33	> 50	> 50
COCCOc1cc2ncnc(Nc3cccc(-c4cn(-c5ccccc5)nn4)c3)c2cc1OCCOC [Compound 3o, [6,7-Bis-(2-Methoxy-Ethoxy)-Quinazolin-4-yl]-[3-(1-Phenyl-1H-(1,2,3)Triazol-4-yl)-Phenyl]-Amine]		> 50	> 50	46.8 ± 4.63	14.2 ± 1.61	> 50	49.5 ± 5.01
COCCOc1cc2ncnc(Nc3cccc(-c4cn(-c5ccccc5Cl)nn4)c3)c2cc1OCCOC [Compound 3h, [6,7-Bis-(2-Methoxy-Ethoxy)-Quinazolin-4-yl]-{3-[1-(2-Chloro-Phenyl)-1H-(1,2,3)Triazol-4-yl]-Phenyl}-Amine]	131 to 134	> 50	> 50	> 50	6.03 ± 0.57	> 50	> 50
COCCOc1cc2ncnc(Nc3cccc(-c4cn(Cc5ccccc5Br)nn4)c3)c2cc1OCCOC [Compound 3c, [6,7-Bis-(2-Methoxy-Ethoxy)-Quinazolin-4-yl]-{3-[1-(2-Bromo-Benzyl)-1H-(1,2,3)Triazol-4-yl]-Phenyl}-Amine]	94 to 97	> 50	5.72 ± 0.33	5.47 ± 0.29	22.4 ± 2.53	5.35 ± 0.34	> 50
COCCOc1cc2ncnc(Nc3cccc(-c4cn(Cc5ccccc5)nn4)c3)c2cc1OCCOC [Compound 3a, {3-[1-Benzyl-1H-(1,2,3)Triazol-4-yl]-Phenyl}-[6,7-Bis-(2-Methoxy-Ethoxy)-Quinazolin-4-yl]-Amine]	89 to 92	> 50	34 ± 2.77	5.27 ± 0.31	> 50	5.85 ± 0.28	9.7 ± 0.75
COCCOc1cc2ncnc(Nc3cccc(-c4cn(-c5ccc(F)cc5)nn4)c3)c2cc1OCCOC [Compound 3g, [6,7-Bis-(2-Methoxy-Ethoxy)-Quinazolin-4-yl]-{3-[1-(4-Fluoro-Phenyl)-1H-(1,2,3)Triazol-4-yl]-Phenyl}-Amine]	88 to 91	> 50	29.6 ± 2.18	44.5 ± 4.23	8.01 ± 0.83	5.46 ± 0.23	> 50
COCCOc1cc2ncnc(Nc3cccc(-c4cn(-c5cccc(OC)c5)nn4)c3)c2cc1OCCOC [Compound 3e, [6,7-Bis-(2-Methoxy-Ethoxy)-Quinazolin-4-yl]-{3-[1-(3-Methoxy-Phenyl)-1H-(1,2,3)Triazol-4-yl]-Phenyl}-Amine]		> 50	21.1 ± 1.74	6.25 ± 0.35	> 50	12.6 ± 1.01	> 50
COCCOc1cc2ncnc(Nc3cccc(-c4cn(Cc5ccccc5I)nn4)c3)c2cc1OCCOC [Compound 3b, [6,7-Bis-(2-Methoxy-Ethoxy)-Quinazolin-4-yl]-{3-[1-(2-Iodo-Benzyl)-1H-(1,2,3)Triazol-4-yl]-Phenyl}-Amine]	93 to 96	> 50	> 50	20.6 ± 1.87	8.05 ± 0.71	9.03 ± 0.82	17.6 ± 1.37

Further lines, with some results ahead:

melting point [°C]	SMILES	IC50 (HCC827 cells) [µM]	IC50 (H1650 cells) [µM]	IC50 (KYSE450 cells) [µM]	IC50 [1] [µM]	IC50 (KYSE70 cells) [µM]	IC50 (KYSE410 cells) [µM]
105 to 108	COCCOc1cc2ncnc(Nc3cccc(-c4cn(-c5ccc(Br)cc5)nn4)c3)c2cc1OCCOC [Compound 3j, [6,7-Bis-(2-Methoxy-Ethoxy)-Quinazolin-4-yl]-{3-[1-(4-Bromo-Phenyl)-1H-(1,2,3)Triazol-4-yl]-Phenyl}-Amine]	6.27 ± 0.42	4.98 ± 0.17	3.6 ± 0.27	7.2 ± 0.63	3.72 ± 0.33	> 50
87 to 90	COCCOc1cc2ncnc(Nc3cccc(-c4cn(-c5ccccc5OC)nn4)c3)c2cc1OCCOC [Compound 3k, [6,7-Bis-(2-Methoxy-Ethoxy)-Quinazolin-4-yl]-{3-[1-(2-Methoxy-Phenyl)-1H-[1,2,3]Triazol-4-yl]-Phenyl}-Amine]	6.18 ± 0.61	16 ± 1.69	20 ± 2.25	10.3 ± 0.96	16 ± 1.53	32 ± 3.25
95 to 98	COCCOc1cc2ncnc(Nc3cccc(-c4cn(-c5ccc(C)cc5)nn4)c3)c2cc1OCCOC [Compound 3l, [6,7-Bis-(2-Methoxy-Ethoxy)-Quinazolin-4-yl]-[3-(1-p-Tolyl-1H-(1,2,3)Triazol-4-yl)-Phenyl]-Amine]	4.61 ± 0.28	10 ± 0.79	> 50	4.82 ± 0.32	11.1 ± 0.94	> 50
98 to 101	COCCOc1cc2ncnc(Nc3cccc(-c4cn(-c5cccc([N+](=O)[O-])c5)nn4)c3)c2cc1OCCOC [Compound 3m, [6,7-Bis-(2-Methoxy-Ethoxy)-Quinazolin-4-yl]-{3-[1-(3-Nitro-Phenyl)-1H-(1,2,3)Triazol-4-yl]-Phenyl}-Amine]	8.44 ± 0.37	4.27 ± 0.19	4.05 ± 0.21	> 50	3.92 ± 0.15	5.85 ± 0.2
93 to 97	COCCOc1cc2ncnc(Nc3cccc(-c4cn(-c5ccccc5Br)nn4)c3)c2cc1OCCOC [Compound 3i, [6,7-Bis-(2-Methoxy-Ethoxy)-Quinazolin-4-yl]-{3-[1-(2-Bromo-Phenyl)-1H-(1,2,3)Triazol-4-yl]-Phenyl}-Amine]	24.2 ± 2.34	> 50	> 50	6.23 ± 0.62	36.1 ± 3.17	> 50
100 to 103	COCCOc1cc2ncnc(Nc3cccc(-c4cn(-c5ccc(C)cc5O)nn4)c3)c2cc1OCCOC [Compound 3r, 2-(4-{3-[6,7-Bis-(2-Methoxy-Ethoxy)-Quinazolin-4-Ylamino]-Phenyl}-(1,2,3)Triazol-1-yl)-5-Methyl-Phenol]	12.4 ± 1.07	4.32 ± 0.27	8.2 ± 0.67	> 50	5.85 ± 0.52	8.74 ± 0.74
113 to 116	COCCOc1cc2ncnc(Nc3cccc(-c4cn(-c5ccccc5C(F)(F)F)nn4)c3)c2cc1OCCOC [Compound 3p, [6,7-Bis-(2-Methoxy-Ethoxy)-Quinazolin-4-yl]-{3-[1-(2-Trifluoromethyl-Phenyl)-1H-(1,2,3)Triazol-4-yl]-Phenyl}-Amine]	34.7	> 50	24.9 ± 2.16	> 50	> 50	> 50
109 to 112	COCCOc1cc2ncnc(Nc3cccc(-c4cn(CCc5ccccc5)nn4)c3)c2cc1OCCOC [Compound 3s, [6,7-Bis-(2-Methoxy-Ethoxy)-Quinazolin-4-yl]-{3-[1-Phenethyl-1H-(1,2,3)Triazol-4-yl]-Phenyl}-Amine]	> 50	> 50	> 50	33.3 ± 3.43	> 50	> 50
110 to 114	CCOc1cccc(-n2cc(-c3cccc(Nc4ncnc5cc(OCCOC)c(OCCOC)cc45)c3)nn2)c1 [Compound 3n, [6,7-Bis-(2-Methoxy-Ethoxy)-Quinazolin-4-yl]-{3-[1-(3-Ethoxy-Phenyl)-1H-(1,2,3)Triazol-4-yl]-Phenyl}-Amine]	13.7 ± 1.34	35.4 ± 3.46	12.8 ± 1.25	22.6 ± 2.31	> 50	49.7 ± 4.57
85 to 88	COCCOc1cc2ncnc(Nc3cccc(-c4cn(-c5ccc(OC)cc5OC)nn4)c3)c2cc1OCCOC [Compound 3q, [6,7-Bis-(2-Methoxy-Ethoxy)-Quinazolin-4-yl]-{3-[1-(2,4-Dimethoxy-Phenyl)-1H-(1,2,3)Triazol-4-yl]-Phenyl}-Amine]	> 50	> 50	> 50	28.1 ± 2.47	> 50	12.3 ± 0.93
